Experimental data taken from patent publication US9290529B2, “Carbonic anhydrase inhibitors and method of their production” (USTAV ORGANICKE CHEMIE A BIOCHEMIE AKADEMIE VED CESKE …, priority 2011, dated 2016).

What was measured:
CCRF-CEM = assay: MTT cytotoxicity assay, CCRF-CEM; format: cell-based, human; conditions: 72 h
Description: (§1) One of the parameters used as the basis for colorimetric assays is the metabolic activity of viable cells. For example, a microtiter assay which uses the tetrazolium salt MTT is now widely used to quantitate cell proliferation and cytotoxicity (Hájduch et al., Cytotechnology, 19, 1996, 243-245). For instance, this assay is used in drug screening programs and in chemosensitivity testing. Because tetrazolium salts are cleaved only by metabolically active cells, these assays exclusively detect viable cells. In the case of the MTT assay, yellow soluble tetrazolium salt is reduced to a coloured water-insoluble formazan salt. After it is solubilized, the formazan formed can easily and rapidly be quantified in a conventional ELISA plate reader at 570 nm (maximum absorbancy). The quantity of reduced formazan corresponds to the number of vital cells in the culture.
(§2) All cells were purchased from the […] (ATCC), unless otherwise indicated: the CEM line are highly chemosensitive T-lymphoblastic leukemia cells, K562 cells were derived from patient with […] with bcr-abl translocation, A549 line is lung adenocarcinoma, HCT116 is colorectal tumor cell line and its p53 gene knock-down counterpart (HCT116p53−) is a model of human cancers with p53 mutation frequently associated with poor prognosis. The daunorubicin resistant subline of CEM cells (CEM-DNR bulk) and paclitaxel resistant subline K562-tax were selected in our laboratory by the cultivation of maternal cell lines in increasing concentrations of daunorubicine or paclitaxel, respectively (Noskova et al., Neoplasma 49, 2002, 418). The CEM-DNR bulk cells overexpress MRP-1 protein, while K562-tax cells overexpress P-glycoprotein, both proteins belong to family of ABC transporters and are involved in primary and/or acquired multidrug resistance phenomenon (Noskova et al., Neoplasma 49, 2002, 418). The cells were maintained in Nunc/Corning 80 cm^2 plastic tissue culture flasks and cultured in cell culture medium (DMEM/RPMI 1640 with 5 g/l glucose, 2 mM glutamine, 100 U/ml penicillin, 100 μg/ml streptomycin, 10% fetal calf serum, and NaHCO3).
(§3) This assay was performed according to Hajduch et al., Anti-Cancer Drugs 10, 1997, 1007. Cell suspensions were prepared and diluted according to the particular cell type and the expected target cell density (2 500-30 000 cells/well based on cell growth characteristics). Cells were added by pipette (80 μl) into 96-well microtiter plates. Inoculates were allowed a pre-incubation period of 24 h at 37° C. and 5% CO2 for stabilization. Four-fold dilutions, in 20-μl aliquots, of the intended test concentration were added to the microtiter plate wells at time zero. All test compound concentrations were examined in duplicate. Incubation of the cells with the test compounds lasted for 72 h at 37° C., in a 5% CO2 atmosphere at 100% humidity. At the end of the incubation period, the cells were assayed using MTT. Aliquots (10 μl) of the MTT stock solution were pipetted into each well and incubated for a further 1-4 h. After this incubation period the formazan produced was dissolved by the addition of 100 μl/well of 10% aq SDS (pH=5.5), followed by a further incubation at 37° C. overnight. The optical density (OD) was measured at 540 nm with a Labsystem iEMS Reader MF. Tumor cell survival (TCS) was calculated using the following equation: TCS=(ODdrug-exposed well/mean ODcontrol wells)×100%. The TCS50 value, the drug concentration lethal to 50% of the tumor cells, was calculated from appropriate dose-response curves.

CEM-DNR = assay: MTT cytotoxicity assay, CEM-DNR; format: cell-based, human; conditions: 72 h
Description: as §1, §2, §3

A549 = assay: MTT cytotoxicity assay, A549; format: cell-based, human; conditions: 72 h
Description: as §1, §2, §3

HCT116 = assay: MTT cytotoxicity assay, HCT116; format: cell-based, human; conditions: 72 h
Description: as §1, §2, §3

HCT116p53−/− = assay: MTT cytotoxicity assay, HCT116p53−/−; format: cell-based, human; conditions: 72 h
Description: as §1, §2, §3

BJ = assay: MTT cytotoxicity assay, BJ; format: cell-based; conditions: 72 h
Description: as §1, §3

MRC-5 = assay: MTT cytotoxicity assay, MRC-5; format: cell-based; conditions: MRC-5, MTT, 72 h
Description: as §1, §3

HCT116 cells = assay: Flow cytometric measurement of intracellular pH (pHi), HCT116 expressing CAIX; format: cell-based, human; conditions: for pHi: HCT116, carboranes at 1 μM, 24 hour incubation, control 7.516
Protocol: (§4) The effect of carborane CAIX (carbonic anhydrase IX) inhibitors was evaluated on colorectal cancer cell line HCT116 expressing CAIX enzyme versus CA IX negative cell line of T-lymphoblastic leukemia CCRF-CEM. Acetazolamide, a known inhibitor of CAIX, was used as a standard. HCT116/CCRF-CEM cells were cultivated in McCoy/RPMI Media supplemented with 10% FCS and antibiotics and seeded at high density ([…] per 3.5 cm dish) to induce pericellular hypoxia and thus stimulate CA IX expression. Measurement of pHi was assessed as described in Cianchi et al. [Cianchi F., et al. Selective inhibition of carbonic anhydrase IX decreases cell proliferation and induces […] apoptosis in human cancer cells. The Journal of Pharmacology and Experimental Therapeutics, 2010, Vol. 334, No. 3, 710-719].
(§5) […] The pHi was measured by flow cytometry in cell cultures pretreated with 10 μM of pH sensitive probe carboxyseminaphtorhoda-fluor-1-acetoxymethyl ester (SNARF, Invitrogen, CA) for 15 min at 37° C. After incubation, the cells were washed twice with PBS. Because the addition of bicarbonate can affect pHi, all incubation and cell washes were performed in bicarbonate-free buffer. SNARF was excited at 488 nm and emitted at 580 and 640 nm. The ratio of the emission wavelengths at 640/580 nm was then used to estimate the pHi from a calibration curve. The calibration curve was prepared by nigericin clamp technique. In this method, after the SNARF labeling of untreated cells, aliquots of cell suspensions were re-suspended in a high potassium containing buffer at specific pH (usually 6.8, 7.0, 7.2, 7.4, 7.6 and 7.8). The cell suspensions were then clamped at a specific pH value by the addition of 0.03 μM nigericin (Sigma-Aldrich). Nigericin is a ionophore that allows the exchange of H for K ions, thus abolishing the pH gradient across the cell membrane. When the internal and external K concentrations are approximately equal, the pH rapidly equilibrates to the pH of the bathing solution. A total of 20,000 events were acquired on a FACS ARIA II flow cytometer (Becton. Dickinson) for further analysis.
(§6) The fluorescent ratio values (640/580 nm) calculated for each pH point were further used to construct calibration curve in Prism software (GraphPad Software, Inc., San Diego, Calif.), from which the pHi values in treated cells were determined (Table 3).

CCRF-CEM cells = assay: Flow cytometric measurement of intracellular pH (pHi), CA IX negative CCRF-CEM; format: cell-based, human; conditions: carboranes at 1 μM, 24 hour incubation, control 7.362
Protocol: as §4, §5, §6

Substance | IC50 (CCRF-CEM) | IC50 (CEM-DNR) | IC50 (A549) | IC50 (HCT116) | IC50 (HCT116p53−/−) | IC50 (BJ) | IC50 (MRC-5) | pHi (HCT116 cells) | pHi (CCRF-CEM cells) | intracellular acidification in HCT116 cells (HCT116 cells; carboranes 1 μM versus acetazolamide 50 μM)
1-methylenesulfamide-1,7-dicarba-closo-dodecaborane [CB-19] | 71.9 ± 3.7 µM | 100 ± 0.1 µM | ≥ 100 µM | 89.3 ± 3.3 µM | 78.3 ± 6.5 µM | ≥ 100 µM | ≥ 100 µM | 7.542 | 7.319 | 
Di(methylenesulfamide)-1,7-dicarba-closo-dodecaborane [CB-20] | 84.5 ± 5.3 µM |  | ≥ 100 µM | 99.6 ± 1.1 µM | ≥ 100 µM | ≥ 100 µM | ≥ 100 µM | 7.561 | 7.422 | 
1-methylenesulfamide-9-phenyl-1,2-dicarba-closo-dodecaborane and 1-methylene-sulfamide-12-phenyl-1,2-dicarba-closo-dodecaborane [CB-8] | 73.4 ± 6.8 µM | 96.8 ± 3.3 µM | 96 ± 6.2 µM | 97.4 ± 3.4 µM | 86.6 ± 7.5 µM | ≥ 100 µM | ≥ 100 µM | 7.112 | 7.427 | better than acetazolamide
8-methylensulfamide-8″-methoxy-3,3′-commo-bis(1,2-dicarba-3-cobalta(III)-closo-dodecabor)ate (1-) [CB-4] | 61.7 ± 17.8 µM | 74.5 ± 2.8 µM | 95.5 ± 3.7 µM | 69.2 ± 3 µM | 71.9 ± 3.4 µM | 76.4 ± 3.3 µM | 77.9 ± 1 µM | 7.538 | 7.385 | 
8-butyloxysulfamide-3,3′-commo-bis(decahydro-1,2-dicarba-3-cobalta(III)-closo-dodekabor)ate (1-) [CB-16] | 89.9 ± 6 µM | 95.1 ± 7.9 µM | ≥ 100 µM | 84.8 ± 3 µM | 78.4 ± 3.9 µM | ≥ 100 µM | ≥ 100 µM | 7.563 | 7.442 | 
1-methylensulfamide-1,2-dicarba-closo-dodekaborane [CB-1] | 61.8 ± 10.6 µM | 79 ± 8.9 µM | 94.9 ± 4.3 µM | 63.9 ± 5.7 µM | 62 ± 2.7 µM | ≥ 100 µM | 22.1 ± 1.1 µM | 7.561 | 7.429 | 
10-sulfamide-9′-amine-2,2′-commo-(1,7,10-tricarba-1′,7′,9′-tricarba-2-ferra (II)-closo-dodekabor)ane [CB-10] | 79.5 ± 22.7 µM | ≥ 100 µM | ≥ 100 µM | 96.4 ± 4.5 µM |  | ≥ 100 µM | ≥ 100 µM | 7.688 | 7.328 | 
